Assay results from publication PMC10518257 (Nature Cancer, 2023).
Values joined by “and” are separate entries in the source; they are usually repeats but may differ in a detail not shown here. Identical values can stand only once.

Assays:
[1] = system: Ba/F3 KIF5B–RET^WT allograft tumors; test: Subcutaneous allograft efficacy study; type: in vivo, BALB/c nude mice; conditions: Ba/F3-KIF5B::RET, Ext. Data Fig. 9b
LUAD-0087AS2 PDX = test: PDX efficacy study; conditions: pralsetinib 30 mg/kg BID
[2] = Animal weight of tumor-bearing mice; conditions: for Animal Weight (g), Mean: Ba/F3-KIF5B::RET tumor-bearing mice (Ext. Data Fig 8i); for Animal Weight: individual animals

Compound: CO[C@]1(C(=O)N[C@@H](C)c2ccc(-n3cc(F)cn3)nc2)CC[C@H](c2nc(C)cc(Nc3cc(C)[nH]n3)n2)CC1 [Pralsetinib]
- Tumor Volume Mean ([1]; 30 mg/kg BID, Day 11): 53.52 mm3
- Tumor Volume Mean ([1]; 30 mg/kg BID, Day 15): 67.12 mm3
- Tumor Volume Mean ([1]; 60 mg/kg BID, Day 1): 225.80 mm3
- Tumor Volume Mean ([1]; 60 mg/kg BID, Day 4): 95.08 mm3
- Tumor Volume Mean ([1]; 60 mg/kg BID, Day 8): 69.89 mm3
- Tumor Volume Mean ([1]; 60 mg/kg BID, Day 11): 52.39 mm3
- Tumor Volume Mean ([1]; 60 mg/kg BID, Day 15): 58.70 mm3
- Change in tumor volume (% from base line) (LUAD-0087AS2 PDX; Fig. 6a LUAD-0087AS2, individual animals): -36.557% and -40.331% and -44.442% and -50.767%
- Area Under Curve Mean (LUAD-0087AS2 PDX; Fig. 6a LUAD-0087AS2 tumor growth): -1718
- Animal Weight, Mean ([2]; Ba/F3-KIF5B::RET G810R (Fig 8f), Pralsetinib 10 mg/kg BID, day 1): 26.74 g
- Animal Weight, Mean ([2]; Ba/F3-KIF5B::RET G810R (Fig 8f), Pralsetinib 10 mg/kg BID, day 4): 26.42 g
- Animal Weight, Mean ([2]; Ba/F3-KIF5B::RET G810R (Fig 8f), Pralsetinib 10 mg/kg BID, day 8): 25.72 g
- Animal Weight, Mean ([2]; Ba/F3-KIF5B::RET G810R (Fig 8f), Pralsetinib 10 mg/kg BID, day 11): 26.48 g
- Animal Weight, Mean ([2]; Ba/F3-KIF5B::RET G810R (Fig 8f), Pralsetinib 10 mg/kg BID, day 15): 26.66 g
- Animal Weight, Mean ([2]; Ba/F3-KIF5B::RET G810R (Fig 8g), Pralsetinib 30 mg/kg BID, day 1): 25.3 g
- Animal Weight, Mean ([2]; Ba/F3-KIF5B::RET G810R (Fig 8g), Pralsetinib 30 mg/kg BID, day 4): 26.8 g
- Animal Weight, Mean ([2]; Ba/F3-KIF5B::RET G810R (Fig 8g), Pralsetinib 30 mg/kg BID, day 8): 26.6 g
- Animal Weight, Mean ([2]; Ba/F3-KIF5B::RET G810R (Fig 8g), Pralsetinib 30 mg/kg BID, day 11): 25.3 g
- Animal Weight, Mean ([2]; Ba/F3-KIF5B::RET G810R (Fig 8g), Pralsetinib 30 mg/kg BID, day 15): 26.0 g
- Animal Weight (g), Mean ([2]; 3 mg/kg BID, day 1): 26.4 g
- Animal Weight (g), Mean ([2]; 3 mg/kg BID, day 4): 26.5 g
- Animal Weight (g), Mean ([2]; 3 mg/kg BID, day 8): 26.3 g
- Animal Weight (g), Mean ([2]; 3 mg/kg BID, day 11): 27.3 g
- Animal Weight (g), Mean ([2]; 3 mg/kg BID, day 15): 27.9 g
- Animal Weight (g), Mean ([2]; 10 mg/kg BID, day 1): 26.2 g
- Animal Weight (g), Mean ([2]; 10 mg/kg BID, day 4): 26.8 g
- Animal Weight (g), Mean ([2]; 10 mg/kg BID, day 8): 26.6 g
- Animal Weight (g), Mean ([2]; 10 mg/kg BID, day 11): 26.8 g
- Animal Weight (g), Mean ([2]; 10 mg/kg BID, day 15): 27.7 g
- Animal Weight (g), Mean ([2]; 30 mg/kg BID, day 1): 26.2 g
- Animal Weight (g), Mean ([2]; 30 mg/kg BID, day 4): 26.3 g
- Animal Weight (g), Mean ([2]; 30 mg/kg BID, day 8): 25.8 g
- Animal Weight (g), Mean ([2]; 30 mg/kg BID, day 11): 26.9 g
- Animal Weight (g), Mean ([2]; 30 mg/kg BID, day 15): 27.4 g
- Animal Weight (g), Mean ([2]; 60 mg/kg BID, day 1): 25.8 g
- Animal Weight (g), Mean ([2]; 60 mg/kg BID, day 4): 25.8 g
- Animal Weight (g), Mean ([2]; 60 mg/kg BID, day 8): 25.6 g
- Animal Weight (g), Mean ([2]; 60 mg/kg BID, day 11): 26.0 g
- Animal Weight (g), Mean ([2]; 60 mg/kg BID, day 15): 26.0 g
- Animal Weight ([2]; LUAD-0077AS1 PDX, Pralsetinib 30 mg/kg BID, treatment day 0): 23 g (2×) and 26 g (2×) and 21 g (2×) and 24 g and 25 g (2×) and 22 g
- Animal Weight ([2]; LUAD-0077AS1 PDX, Pralsetinib 30 mg/kg BID, treatment day 4): 26 g (2×) and 23 g and 21 g (2×) and 24 g (2×) and 25 g (2×) and 22 g
- Animal Weight ([2]; LUAD-0077AS1 PDX, Pralsetinib 30 mg/kg BID, treatment day 7): 26 g (2×) and 23 g and 21 g and 22 g (2×) and 25 g (2×) and 27 g and 24 g
- Animal Weight ([2]; LUAD-0087AS2 PDX, Pralsetinib 30 mg/kg BID, treatment day 0): 28 g and 27 g (2×) and 23 g and 26 g
- Animal Weight ([2]; LUAD-0087AS2 PDX, Pralsetinib 30 mg/kg BID, treatment day 3): 28 g and 27 g and 26 g and 24 g (2×)
- Animal Weight ([2]; LUAD-0087AS2 PDX, Pralsetinib 30 mg/kg BID, treatment day 7): 28 g and 26 g (2×) and 24 g and 25 g
- Animal Weight ([2]; LUAD-0087AS2 PDX, Pralsetinib 30 mg/kg BID, treatment day 10): 28 g and 27 g and 26 g and 25 g (2×)
- Animal Weight ([2]; LUAD-0087AS2 PDX, Pralsetinib 30 mg/kg BID, treatment day 14): 29 g and 27 g and 26 g and 25 g (2×)
- Animal Weight ([2]; LUAD-0087AS2 PDX, Pralsetinib 30 mg/kg BID, treatment day 17): 29 g and 25 g (3×) and 26 g
- Animal Weight ([2]; LUAD-0087AS2 PDX, Pralsetinib 30 mg/kg BID, treatment day 21): 28 g and 24 g and 25 g (2×) and 26 g
- Animal Weight ([2]; LUAD-0087AS2 PDX, Pralsetinib 30 mg/kg BID, treatment day 24): 28 g and 25 g (3×) and 26 g
- Animal Weight ([2]; LUAD-0087AS2 PDX, Pralsetinib 30 mg/kg BID, treatment day 29): 28 g and 25 g (3×) and 26 g
- Animal Weight ([2]; LUAD-0087AS2 PDX, Pralsetinib 30 mg/kg BID, treatment day 32): 29 g and 25 g (2×) and 26 g (2×)
- Animal Weight ([2]; LUAD-0087AS2 PDX, Pralsetinib 30 mg/kg BID, treatment day 35): 29 g and 25 g (3×) and 26 g
- Animal Weight ([2]; LUAD-0087AS2 PDX, Pralsetinib 30 mg/kg BID, treatment day 38): 25 g (3×) and 24 g and 26 g
- Animal Weight ([2]; LUAD-0087AS2 PDX, Pralsetinib 30 mg/kg BID, treatment day 42): 28 g and 25 g (2×) and 26 g (2×)
- Animal Weight ([2]; LUAD-0087AS2 PDX, Pralsetinib 30 mg/kg BID, treatment day 45): 28 g and 25 g (2×) and 26 g (2×)
